Assays:
Format in all cases: biochemical
[1] = molecular target: T1, α-synuclein fibrils (Homo sapiens, UniProt P37840); experiment: Thioflavin T fluorometry, disruption of pre-formed α-synuclein fibrils; conditions: 2-day incubation
T1 construct: purchased rPeptide, Bogart, Calif
Description: In this set of studies, the efficacy of certain compounds provided herein to cause a disassembly/disruption/disaggregation of pre-formed fibrils of Parkinson's disease (i.e. consisting of α-synuclein fibrils) was analyzed. For the studies described below in Parts A and B, 69 μM of α-synuclein (rPeptide, Bogart, Calif.) was first incubated at 37° C. for 4 days in 20 mM sodium acetate buffer at pH 4 with circular shaking (1,300 rpm) to cause α-synuclein aggregation and fibril formation.
In one study, Thioflavin T fluorometry was used to determine the effects of the compounds on α-synuclein fibrils. […] In this assay Thioflavin T binds specifically to fibrillar protein, and this binding produces a fluorescence enhancement at 485 nm that is directly proportional to the amount of fibrils formed.
Following initial α-synuclein fibrilization as described above, the α-synuclein (6.9 μM) mixture was then incubated at 37° C. for 2 days with shaking (200 rpm), either alone, or in the presence of one of the compounds (at test compound:α-synuclein molar ratios of 10:1, 1:1, 0.1:1, and 0.01:1) in phosphate-buffered saline, pH 7.4+0.02% sodium azide. Following 2 days of co-incubation, 50 μl (5 μg) of each incubation mixture was transferred into a 96-well microtiter plate containing 150 μl of distilled water and 50 μl of a Thioflavin T solution (i.e. 500 μM Thioflavin T in 250 mM phosphate buffer, pH 6.8). The final concentration of Thioflavin T reagent is 100 μM in 50 mM phosphate buffer, pH 6.8. The fluorescence was read at 485 nm (444 nm excitation wavelength) using an ELISA plate fluorometer. Subtraction of the signal obtained from a diluted reaction (blank) containing buffer alone or compound alone at a concentration equivalent to that of its corresponding α-synuclein-containing reaction was used to quantitate the amount of Thioflavin T fluorescence in each α-synuclein-containing reaction that is proportional to the protein fibril content in that reaction.

[2] = molecular target: T2, Aβ 1-42 (Homo sapiens, UniProt P05067); experiment: Thioflavin T fluorometry, inhibition of β-sheet formation of non-fibrillar Aβ 1-42; parameters: pre-fibrillized human Aβ 1-42 (rPeptide); purchased rPeptide; conditions: for Thioflavin T fluorometry-% Inhibition: 24 hours
T2 sequence (P05067 672-713 limits assumed): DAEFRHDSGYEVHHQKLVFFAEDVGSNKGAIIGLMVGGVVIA
Description: To test whether the compounds can inhibit β-sheet formation of Aβ, the same assay as described in Example 5 was utilized, but the Aβ was prepared so that it is in a non-fibrillar state at the start of the assay. To achieve this non-fibrillar state, lyophilized human Aβ 1-42 (rPeptide) was dissolved to 1 mg/mL (220 μM) using 2 mM NaOH and the pH was adjusted to 10.5 with small (μL) additions of 1M NaOH. The clear solution was then frozen, re-lyophilized, and dissolved in a buffer containing 9.5 mM phosphate, 137 mM sodium chloride and 2.7 mM potassium chloride (phosphate-buffered saline; PBS) to a concentration of 2 mg/mL (440 μM) Aβ. […] The reactions containing Aβ+test compounds (or Aβ+PBS as a control for Aβ aggregation) were then incubated for 24 hours, the incubation mixtures were diluted 1:20 to 0.05 mg/mL Aβ and 50 μL of each diluted incubation mixture was transferred into a 96-well microtiter plate containing 150 μL of distilled water and 50 μL of a Thioflavin T solution (i.e. 500 μM Thioflavin T in 250 mM phosphate buffer, pH 6.8). The final concentration of Aβ was 2.2 μM and the concentration of Thioflavin T reagent was 100 μM in 50 mM phosphate buffer, pH 6.8. The fluorescence was read at 485 nm (444 nm excitation wavelength) using an ELISA plate fluorometer after subtraction with PBS buffer alone or compound alone, as blank.

[3] = molecular target: T2, Aβ 1-42; experiment: Circular dichroism (CD) spectroscopy, inhibition of β-sheet formation of Aβ; conditions: for magnitude of the change of the ellipticity minimum at 218 nm relative to Aβ alone: 24 hours of incubation, at appropriate concentrations; for Circular Dichroism Spectroscopy -% Inhibition: 24 hours
Description: For this purpose, the Aβ reactions that were used in the Thioflavin T fluorometry assay (Part A in this Example) were assessed at 24 hours of aggregation. Aβ alone was also assessed by CD spectral analysis at t=0, prior to aggregation, (t=0, unfolded reference control). After 24 hours, reactions were diluted 20-fold in PBS and a CD spectrum for each reaction was acquired on a Jasco J-810 spectropolarimeter using a 0.1 cm path length cell. All spectra were recorded with a step size of 0.1 nm, a bandwidth of 1 nm, and an Aβ concentration of 0.05 mg/ml. The spectra were trimmed at the shortest wavelength that still provided a dynode voltage less than 600V. The trimmed spectra were then subjected to a data processing routine beginning with noise reduction by Fourier transform followed by subtraction of a blank spectrum (vehicle only without Aβ). These blank corrected spectra were then zeroed at 260 nm and the units converted from millidegrees to specific ellipticity.
Percent β-sheet was determined from processed spectra using the ellipticity minimum value at approximately 218 nm and referencing to a scale normalized to nearly fully folded and unfolded reference values, consistent with previous reports (Ramirez-Alvarado et al., J. Mol. Biol., 273:898-912, 1997; Andersen et al., J. Am. Chem. Soc., 121:9879-9880, 1999). The fully folded reference value was found by performing the described calculation on the spectrum of Aβ fibrillized for 24 hours (complete fibrillization), and assigning this difference the arbitrary value of 100% β-sheet. The unfolded reference was provided by the spectrum from the same sample at the initial time point (t=0) and ascribing the difference found here the arbitrary value of 0% β-sheet. These percent β-sheet values were then used to provide the respective relative % inhibition of β-sheet induced by the compounds at given molar ratio of test compound:Aβ.

[4] = compound:peptide molar ratio 0.01:1
[5] = compound:peptide molar ratio 0.1:1
[6] = compound:peptide molar ratio 1:1
[7] = compound:peptide molar ratio 10:1

| Compound | Thioflavin T fluorometry-% Inhibition [1, 4] [%] | Thioflavin T fluorometry-% Inhibition [1, 5] [%] | Thioflavin T fluorometry-% Inhibition [1, 6] [%] | Thioflavin T fluorometry-% Inhibition [1, 7] [%] | Thioflavin T fluorometry-% Inhibition ([2]; compound:Aβ molar ratio 5:1) [%] | Thioflavin T fluorometry-% Inhibition ([2]; compound:Aβ molar ratio 10:1) [%] | magnitude of the change of the ellipticity minimum at 218 nm relative to Aβ alone [3] | inhibition of Aβ aggregation (Thioflavin T fluorometry) ([2]; concentrations tested 50:1, 10:1 and 1:1) | Circular Dichroism Spectroscopy -% Inhibition ([3]; compound:Aβ molar ratio 0.5:1) [%] | Circular Dichroism Spectroscopy -% Inhibition ([3]; compound:Aβ molar ratio 1:1) [%] | Circular Dichroism Spectroscopy -% Inhibition ([3]; compound:Aβ molar ratio 5:1) [%] | Circular Dichroism Spectroscopy -% Inhibition ([3]; compound:Aβ molar ratio 10:1) [%] | inhibition of β-sheet formation in Aβ (CD) ([3]; test compound:Aβ molar ratios ≧5:1) | Thioflavin T fluorometry-% Inhibition ([2]; compound:Aβ molar ratio 1:1) [%] |
| --- | --- | --- | --- | --- | --- | --- | --- | --- | --- | --- | --- | --- | --- | --- |
| 1,3-dimethyl-7-(3′,4′-dibenzyloxy)benzyl-8-(3′,4′-dihydroxyphenyl)xanthine [PD-154] | 7 | 10 | 25 | 43 | 0 | 33 |  |  |  |  |  |  |  |  |
| Cn1c(=O)c2c(ncn2C)n(C)c1=O [Caffeine, reference compound] |  |  |  |  |  |  | no effect | failed to inhibit |  |  |  |  |  |  |
| Cn1cnc2c1c(=O)n(Cc1ccc(O)c(O)c1)c(=O)n2Cc1ccc(O)c(O)c1 [PD-150, 7-Methyl-1,3-bis(3′,4′-dihydroxy)benzylxanthine] | 0 | 0 | 48 | 84 |  | 93 | reduced |  | 40 | 42 | 69 | 62 | at least 62% | 23 |
| Cn1c(=O)n(Cc2ccc(O)c(O)c2)c(=O)c2c1ncn2Cc1ccc(O)c(O)c1 [PD-151, 3-Methyl-1,7-bis(3′,4′-dihydroxybenzyl)xanthine] | 4 | 15 | 56 | 89 |  | 87 | reduced |  | 38 | 43 | 66 | 67 |  | 9 |
| Cn1c(=O)c2c(ncn2Cc2ccc(O)c(O)c2)n(Cc2ccc(O)c(O)c2)c1=O [PD-152] | 0 | 4 | 52 | 86 | 23 | 61 | reduced |  | 26 | 42 | 35 | 57 |  |  |
| Cn1c(=O)c2c(nc(-c3ccc(O)c(O)c3)n2C)n(C)c1=O [PD-153, 1,3,7-trimethyl-8-(3′,4′-dihydroxyoxyphenyl)xanthine] | 7 | 17 | 18 | 37 |  |  | reduced |  |  |  | 8 | 24 |  |  |
